These results are taken from patent publication US6004932A, “Use of glucagon as a metabolic conditioner for dairy cows and other ruminants” (Iowa State University Research Foundation, Inc., priority 1998, dated 1999).

Holding throughout (assay type): in vivo
Data set [1] concerns multiparous Holstein cows. In words: Effect of glucagon on liver triacylglycerol (lipid) levels of dairy cows, liver biopsies. The method, then: (§1) Glucagon purified from bovine pancreas, was weighed, dissolved in 0.09% NaCl adjusted to pH 10.5, and diluted so that the amount to be infused daily was contained in 480 ml to allow for an infusion rate of 20 ml/h. All glassware that was to be in contact with glucagon was rinsed with a solution of 1.0% bovine serum albumin to prevent adherence of glucagon to glass surfaces.
The four groups of 10 multiparous Holstein cows per group that were used for the main trial were normal controls (NC), normal cows treated with glucagon (NTG), susceptible controls that should be inducible into ketosis (SC), and susceptible cows treated with glucagon (STG). […]
(§2) A liver biopsy was taken at 7 days postpartum and analyzed immediately for triacylglycerols and glycogen. […]
(§3) On d 14 postpartum, the SC and the STG groups began the FRBD (feed restriction and 1,3-butanediol in the diet) protocol in which feed intake was restricted to 80% of the average intake for the previous 2 days and 1,3-butanediol (BD) was added, a precursor of ketone bodies, to the ration in increasing quantities either until the cow became ketotic or until 1.4 kg of BD was offered daily. […]
Glycogen and triacylglycerol concentrations of liver samples were determined as described by Mills, S. E. et al., "Characterization of metabolic changes during a protocol for inducing lactation ketosis in dairy cows", J. Dairy Sci. 69:352 (1986a). […]

In data set [2] the test system is multiparous Holstein cows. Briefly: Effect of glucagon on liver glycogen content of dairy cows, liver biopsies. To be noted: NTG and STG groups, FIG. 3. The protocol: as §1
The four groups of 10 multiparous Holstein cows per group that were used for the main trial were normal controls (NC), normal cows treated with glucagon (NTG), susceptible controls that should be inducible into ketosis (SC), and susceptible cows treated with glucagon (STG). The two groups of 10 normal cows were selected from cows that had body condition scores at calving that ranged from 3.2 to 3.8. The two groups of 10 susceptible cows were selected from obese cows that have been fed at 2 times NRC requirements for energy during late lactation and throughout the dry period so they calved at a body condition score of 4.0 to 4.5. […]
as §2, §3
Glycogen and triacylglycerol concentrations of liver samples were determined as described by Mills, S. E. et al., "Characterization of metabolic changes during a protocol for inducing lactation ketosis in dairy cows", J. Dairy Sci. 69:352 (1986a). Total lipid content was measured as described by Drackley, J. K. et al., "Metabolic changes in blood and liver of dairy cows during feed restriction or administration of 1,3-butanediol", J. Dairy Sci., 74:4254 (1991). […]

A further data set concerns dairy cows. In words: Toxicity observation during glucagon treatment of dairy cows. To be noted: treated dairy cows, 10 mg/day. The protocol: On d 14 postpartum, the SC and the STG groups began the FRBD (feed restriction and 1,3-butanediol in the diet) protocol in which feed intake was restricted to 80% of the average intake for the previous 2 days and 1,3-butanediol (BD) was added, a precursor of ketone bodies, to the ration in increasing quantities either until the cow became ketotic or until 1.4 kg of BD was offered daily. The STG group at 21 days postpartum began to receive a continuous intravenous infusion of 10 mg of glucagon daily, which continued for 14 days. The SC group were infused with saline as a vehicle control. The NC and the NTG groups continued to receive feed for ad libitum intake, but the NTG group received an infusion of glucagon from d 21 to 35 postpartum and the NC group was infused with vehicle control. (The NTG group gave information on how normal early lactation cows respond to 14-day intravenous infusions of glucagon).

The subject of data set [3] is early lactation dairy cows. In words: Preliminary data on glucagon doses above 10 mg/day in early lactation dairy cows. To be noted: doses of greater than 10 mg/day; inventors' preliminary data.

As for glucagon, in data set [1] (NTG vs NC, FIG. 2), the “liver triacylglycerol, covariate adjusted to average d-7 value, normal cows” value was “only a slight difference between the NC and the NTG groups”. The “change in concentration of lipid in livers of normal cows” value in data set [1] (normal cows (NTG vs NC), 10 mg/d intravenous infusion d 21-35 postpartum, FIG. 1) is listed as “no major decrease”. In data set [2] (after termination of infusion), the “liver glycogen content after d 38, before the 42-d biopsy” value is recorded as “dropped dramatically”. The “liver glycogen concentration from the 20-d to the 23-d biopsy sample” value in data set [2] (after infusions began at d 21) is recorded as “decreased”. Also, in data set [2] (d 38 is 3 d after infusions stopped), the “liver glycogen concentration from d 23 up to the d 38 biopsy” value was “increased at a parallel rate”. The “glucagon toxicity in the animals” value with dairy cows is on record as “without any indication of glucagon toxicity”. For the same substance, the “incidence of fatty liver at high dose” value in data set [3] is given as “may actually increase the incidence of fatty liver”.
